# According to a melting point compilation (Tetko et al.; mined from patent text by program, amines drawn as free bases though some values may be those of a salt):
row,melting point [°C],SMILES
1,157,O=C1/C(=C(/c2ccccc2)N2CCCC2)Sc2ccccc21
2,193 to 200,O=C(O)c1ccc(F)cc1Sc1ccccc1
3,103 to 105,CCOC(=O)N=P(c1ccccc1)(c1ccccc1)c1ccccc1CN(C)C
4,130,CON=C1CC(=NOC)c2ccccc2-c2ccccc21
5,70.4 to 101,NC(=O)N1c2ccccc2CC(O)c2ccccc21 (centres undefined)
6,128,O=C1c2ccccc2C(=O)N1CCCCc1cc(-c2ccccn2)nc(-c2ccccn2)c1
7,101 to 107,CC(C)CC(NC(=O)C(Cc1c[nH]cn1)NC(=O)C(CC(=O)NCCc1ccccc1)Cc1cccc2ccccc12)C(O)CO (mixture of isomers)
8,71,C=CCOc1ccc(C(=O)c2ccccc2)cc1
9,203 to 204,CCn1c2c(c3ccccc31)C(=O)NCC2
10,58 to 59,O=C(O)CCCN(C(=O)c1ccc(Cl)c(Cl)c1)c1ccc2c(c1)CCC2
11,94 to 97,COC1CC(OCc2ccccc2)C(OS(=O)(=O)c2ccc(C)cc2)C(COC(c2ccccc2)(c2ccccc2)c2ccccc2)O1 (centres undefined)
12,177,Cc1csc(NC(=O)C2=C(O)c3ccc4ccccc4c3S(=O)(=O)N2C)n1
13,149 to 150,CSc1cc(CBr)cc(S(N)(=O)=O)c1Cc1ccccc1
14,190 to 194,CCc1cnc(N2CCC(c3ccc4oc(-c5ccc(S(C)(=O)=O)cc5F)nc4c3)CC2)nc1
15,89 to 90,CCC1(Cc2ccccc2)CCNC1=O (centres undefined)
16,239,CS(=O)(=O)c1ccc(CN2CCN(C(=O)N3CCC(c4cn[nH]c4)C3)c3ccccc32)cc1 (centres undefined)
17,102,Cc1ccc(S(=O)(=O)OC(C)(c2ccccc2)C(F)(F)F)cc1 (centres undefined)
18,162 to 164,O=C1N(CC2CCCO2)c2ccccc2C12COc1cc3c(cc12)OCC3 (centres undefined)
19,225 to 227,NCc1ccc(C2CCN(c3c(F)c(N)c4c(=O)c(C(=O)O)cn(C5CC5)c4c3F)C2)cc1 (centres undefined)

row,melting point [°C],SMILES
1,196,NC(=O)C(Nc1ccccc1C1CC1)c1c(Cl)cccc1Cl (centres undefined)
2,107 to 109,COC(=O)C1=C(C)NC(C)=C(C(=O)OCCc2ccc(O)cc2)C1c1cccc([N+](=O)[O-])c1 (centres undefined)
3,102 to 105,NC(=O)c1cccc2c1CC(N(CCCc1c[nH]c3ccc(F)cc13)C1CCC1)CO2 (centres undefined)
4,53 to 54,Cc1cccc2nc(-c3ccccc3)sc12
5,242,Cc1nc[nH]c1CN1CCC(Nc2nc3ccccc3n2Cc2ccco2)CC1
6,118 to 120,c1ccc(CCN2CCN(c3n[nH]c4ccccc34)CC2)cc1
7,193 to 194,O=C(c1ccc2nonc2c1)N1Cc2cccnc2Nc2ccccc21
8,125 to 128,CCCn1ccnc(S(=O)(=O)Cc2ccc(Cl)cc2)c1=O
9,218 to 220,COc1cc2ncnc(N3CCN(C(=S)Nc4ccncc4)CC3)c2cc1OC
10,195,COc1ccc(N2CCN(c3ccc([N+](=O)[O-])cc3)CC2)cc1
11,130,CCNC(=O)C1(CCCc2ccccc2)c2ccccc2Oc2ccccc21
12,161 to 162,CN1CC(CCN2CCN(c3ncccn3)CC2)c2nc3ccccc3n2C1=O (centres undefined)
13,123 to 124,c1csc(-c2coc(COc3ccc(CCCn4ccnc4)cc3)n2)c1
14,191 to 193,Cc1ccsc1C=C1CCc2cc(OCCc3c[nH]cn3)ccc2C1=O
15,168 to 171,COc1ccc(C(NCCC2CCCCC2)c2cccc(Nc3c(N)c(=O)c3=O)c2)cc1 (centres undefined)
16,202 to 204,CCc1nc(OC)c(NC(=O)N2CCN(c3cc(F)cc(F)c3)CC2)cc1C(=O)NC(C)C(=O)Nc1cc(CO)cc(Nc2c3ccccc3nc3ccccc23)c1 (centres undefined)
17,76 to 77,COc1ccccc1CCC1CNC(=O)O1 (centres undefined)
18,> 250,O=C(O)Cn1c(-c2ccc(F)cc2)nc2cccnc21

# Second part, the molecule before the results:
row,SMILES,melting point [°C]
1,Cc1cc2oc(=O)c(NC(=O)Nc3ccc(Cl)cc3)c(-c3ccccc3C)c2cc1C,234 to 236
2,CCOC(=O)c1cnn(C)c1C(=O)Nc1ccn2nc(-c3ccnc(F)c3)nc2c1,220 to 230
3,CSc1nc(O)nc(-c2ccncc2)n1,270 to 272
4,COc1cc(Cc2cnc(N)nc2NC(C)=O)cc(OC)c1C(C)(C)O,214 to 216
5,CCn1c2ccccc2n2c(=O)c(C(=O)NC)cnc12,178 to 180
6,CCCCNc1cc(C(=O)OCC#N)cc(S(N)(=O)=O)c1Oc1ccccc1,159 to 161
7,CC(C)(C)c1cc(CN(c2cccnc2)S(=O)(=O)c2cccc(Br)c2)cc(C(C)(C)C)c1O,129 to 131
8,CC(C)NS(=O)(=O)c1cccc(NC(=O)c2cnn3c(C(F)F)cc(-c4ccc(C(F)(F)F)cc4)nc23)c1,229
9,O=C(CCl)NC1CCCc2sccc21 (centres undefined),115 to 119
10,CC(C)(C)OC(=O)c1ccc([N+](=O)[O-])c(OCCOc2cc(C(=O)OC(C)(C)C)ccc2[N+](=O)[O-])c1,155 to 157
11,Cc1cc2c(cc1N)OCO2,88 to 89
12,COC(=O)CCCc1cc2nc(Cl)ccc2n1S(=O)(=O)c1ccc(C)cc1Cl,88 to 89
13,Cn1c(OC2CCOC2)nn(C(=O)NS(=O)(=O)c2ccccc2OC(F)(F)F)c1=O (centres undefined),184
14,C=C(C)C(=O)NCc1cc(C)c(O)c(C)c1,136 to 138
15,COc1ccc2c(c1)[C@H]1Cc3c(cc(C)c(OC)c3C)[C@H]1N2 (relative stereo),149 to 150
16,O=C(C[C@H](NC(=O)C(F)(F)F)C(=O)O)c1ccc(F)cc1F,82.4 to 84
17,COc1c(N2C[C@H](N)[C@H]3OCC[C@H]32)c(F)cc2c(=O)c(C(=O)O)cn(C3CC3)c12 (relative stereo),187 to 189
18,Cc1nc(C)c(Cl)c(NCc2nccc(OCCCCSCCn3c([N+](=O)[O-])cnc3C)c2C)n1,114 to 117
19,Fc1ccc2c(c1F)OCc1csc(=S)n1-2,163 to 167
20,Cc1cc(C)cc(Oc2cccc([N+](=O)[O-])n2)c1,94 to 95
21,COc1cc2c(cc1OC)[C@@H]1C[C@H](NC(=O)OC(C)(C)C)[C@@H](N3C[C@H](CF)CC3=O)CN1CC2,> 300

row,SMILES,melting point [°C]
1,NC(=O)c1cc(-n2cccn2)ccc1N,147 to 149
2,O=C(OC(F)C(F)F)c1cnccn1 (centres undefined),46 to 48
3,CC1(C)CN=C2N(C1)c1ccc(C(=O)O)cc1C21OCCCO1,151 to 153
4,N#Cc1cc(-c2nc3cncnc3s2)ccc1Oc1ccc(Cl)cc1,179 to 180
5,CCOC(=O)/C=C/c1ccc(OCCOC)cc1NC(=O)c1ccc(Cl)cc1Cl,170
6,CCCCC(CC)(C(=O)O)C(=O)O,161 to 170
7,Clc1ccc2nc(Cl)c(I)n2c1,234 to 235
8,CC(C#N)c1ccc(O)cc1 (centres undefined),41 to 46
9,CC(CCCC(O)(C(F)(F)F)C(F)(F)F)C1CCC2C3C=CC4=CC(=O)C=CC4(C)C3CCC12C (centres undefined),166 to 168
10,CCOC(=O)C1=Cc2cccc(C(N)=O)c2OCC1,120 to 125
11,CC(=O)c1cc(Cl)c(O)c2ncccc12,163 to 166
12,CNC(=O)Nc1cc(C(C)(C)C)on1,187 to 188
13,CC(C)N(CCN1C(=O)/C(=N/NC(N)=O)c2ccccc21)C(C)C,189 to 191
14,CCOC(=O)CC(=O)Nc1nc(C)cs1,138 to 141
15,COc1ccc(CCc2ccc(NC(=O)C(=O)c3cc(Cl)ccc3O)cc2)cc1OC,128 to 130
16,Oc1ccc2c3c1OC1C(O)CCC4(F)C(C2)N(CC2CCC2)CCC314 (centres undefined),236 to 239
17,CC(=O)CC(=O)CCC(=O)CC(C)=O,62.7 to 64
18,COc1ccc(C(=O)C#Cc2ccc3c(c2)c(=O)n(Cc2ccc(F)cc2)c(=O)n3C)cc1,240
19,Oc1ccc2c(c1)Cc1cc(Br)ccc1-2,183 to 184
20,CCCCCCSc1c(O)cc(C)oc1=O,69 to 70
21,NC(=O)N(O)Cc1ccc(C(O)C#Cc2ccsc2)cc1 (centres undefined),117 to 119

row,SMILES,melting point [°C]
1,CC1(C)Oc2ccc(S(=O)(=O)C(F)(F)C(F)(F)C(F)(F)F)cc2[C@@H](N2Cc3ccccc3C2=O)[C@@H]1O (relative stereo),241 to 249
2,CC(SC1COC(c2ccc(C(=O)Nc3c(F)c(F)c(C#N)c(F)c3F)cc2)OC1)C(O)(Cn1cncn1)c1ccc(F)cc1F (centres undefined),182
3,CC(C)(C)C(=O)Nc1cccc(-c2ccnc3c(C(=O)c4ccccc4)cnn23)c1,160 to 161
4,COc1ccc2cc(C(=O)NC3N=C(c4ccccc4)c4ccccc4-n4c(C)nnc43)[nH]c2c1 (centres undefined),160 to 170
5,Cc1c(C)c2c(c(C)c1O)SC(CCC(N)=O)O2 (centres undefined),160 to 161
6,O=C(O)/C=C/c1ccc(-c2nc3c(=O)n(CC4CCCCC4)c(=S)n(CC4CCCCC4)c3[nH]2)cc1,> 300
7,O=CNNc1cccc([N+](=O)[O-])c1,168 to 169
8,CNC(=O)c1sc(C(C)(C)C)cc1N,230 to 231
9,CC12C=CCC1C1CCC3CC(=O)CCC3(C)C1CC2 (centres undefined),140 to 141
10,CCOC(=O)c1cc(C(=O)c2ccc(C)cc2)n(C)c1C,98 to 100
11,COc1ccc(N(C(=O)CN2C(=O)C(Cc3cc(C)n[nH]3)C(=O)N(c3ccccc3)c3ccccc32)C(C)C)cc1 (centres undefined),156 to 159
12,COC(=O)CCNC(=O)c1cc(Cl)c([N+](=O)[O-])cc1[N+](=O)[O-],139 to 141
13,C=CCN1CC2OC(c3ccccc3)(C1)c1ccccc12 (centres undefined),127 to 128
14,CC(C)C(=O)C(=CC(=O)c1ccc(Cl)cc1)n1cncn1,128 to 130
15,CC(C)c1ccc2c(c1)OC1(OC(=O)C(C)(C)C)c3ccccc3C(=O)C21OC(=O)C(C)(C)C (centres undefined),153 to 157
16,COc1cnnc(Oc2ccnc(OC(C)C(F)(F)F)c2)c1 (centres undefined),100 to 102
17,CC(=O)OC1CSC(Oc2ccc3nc(C)sc3c2)C(OC(C)=O)C1OC(C)=O (centres undefined),160
18,O=C(O)c1cn(C2COC2)c2cc(F)c(F)cc2c1=O,255 to 256
19,COC(=O)Cc1c(C(=O)OC)ccn1CCI,137 to 138
20,CCOC=Nc1nc(-c2ccc(C3CCCCC3)cc2)cs1,84 to 85
